Series [1] relates to H1 hESC. Put plainly: Toxicity of the DMSO cryoprotectant to hESC without freezing (Group 2 vs control Group 1). To be noted: DMSO 10% in freezing medium, straws held 20 minutes at room temperature, not frozen; Group 1 vs. 2; cells grown three days. In kind it is cell-based, human. How it is done: (§1) hESC culture. H1 hESC from passage 51 to 57 (WiCell, Madison, Wis., USA) were cultured in Knockout™ DMEM supplemented with GlutaMAX™ (2 mM), sodium pyruvate (1.0 mM), non-essential amino acids (0.1 mM), penicillin (50 u/ml), streptomycin (50 u/ml), Knockout™ serum replacer (15%) (all from Invitrogen, Carlsbad, Calif., USA) and β-mercaptoethanol (0.1 mM; Sigma, St. Louis, Mo., USA). hESC were grown on gelatinized tissue culture plates seeded with primary mouse embryonic fibroblasts that had been exposed to 3000 Rads γ-irradiation. To passage, cells were washed once with calcium and magnesium free phosphate buffered saline (PBS; Invitrogen, Carlsbad, Calif., USA) and then exposed to 1.2 u/ml dispase (Invitrogen, Carlsbad, Calif., USA) dissolved in PBS supplemented with 10% FBS until colonies began to lift from the plate. The cell layer was washed off the plate and mechanically dispersed using a plugged 9-inch Pasteur pipette or a 5 ml pipette. At this point, cells were divided into tubes for each group. The cells were then pelleted through centrifugation at 1200 rpm for 3 minutes, washed and pelleted again in culture medium (described above). […]
(§2) Calculation of Survival. Survival was calculated as combined colony number and colony size relative to Group 1, which was set at 100% survival. The horizontal diameters of 10 colonies were measured. […]

Series [2] relates to H1 hESC. Put plainly: Survival of hESC after slow, controlled-rate freezing and thaw (colony number and colony size relative to untreated control). The series is classed as cell-based, human. The conditions noted are these: sucrose on thaw (cryoprotectant removal); concentration not given. How it is done:
as §1, §2

Regarding `C[S+](C)[O-]` [DMSO], the “toxicity to the hESC” value in series [1] is reported as “does not appear toxic”.
As to `OC[C@H]1O[C@@](CO)(O[C@H]2O[C@H](CO)[C@@H](O)[C@H](O)[C@H]2O)[C@@H](O)[C@@H]1O` [Sucrose], the “effect on survival following thaw” value in series [2] is reported as “harmful to survival”.
